Reference: patent publication US20240148740A1, “COMBINATION OF AN AHR INHIBITOR WITH A PDX INHIBITOR OR DOXORUBICINE” (Ikena Oncology, Inc., priority 2020, published 2024)
Where two headings read alike, the source gives them in different places.

Columns and labels:
[1] = Phase 1 study, interim cohort pharmacokinetics; assay type: in vivo, human; settings: for dose proportionality of PK: Cycle 2 Day 1 (C2D1); for exposure with increase in dose: interim cohort PK
Method: Serial blood samples are obtained to characterize the plasma PK of Compound A and its major active metabolites. The initial sampling strategy is based on the predicted human PK of this compound. If in the course of evaluating the PK, it is determined that an alternative sampling scheme would be more informative, then that alternative sampling scheme can be implemented if the total amount of blood and blood draws obtained for PK is not increased. Moreover, the total number of samples can be decreased at any time if the initial sampling scheme is considered unnecessarily intensive.

[2] = cited from earlier work
[3] = tested on: CMV specific memory T cells; settings: versus isotype-matched control, dose-dependent; cited from earlier work
NSCLC [4] = settings: cited from earlier work
NSCLC [5] = settings: cited from earlier work; remark: listed apart in the source
advanced NSCLC = settings: cited from earlier work
PD-1 pathway = settings: cited from earlier work
[6] = tested on: PD-L1-positive, advanced NSCLC; settings: cited from earlier work
advanced melanoma = settings: median follow-up 9 months after completion of 2 years of pembrolizumab; cited from earlier work

Compound: CC(C)(O)c1cnn2c(N[C@@H]3CCc4[nH]c5ccccc5c4C3)nc(-c3cncc(F)c3)nc12 [Compound B]
- ratio of Compound B to Compound A ([1]; C2D1, 400 mg and 800 mg dose): 1.3-1.4 x parent
- Compound B metabolite ratio ([1]; C2D1, cohorts above 200 mg): increased
- dose proportionality of PK [1]: greater than dose proportional
- accumulation with repeat dosing ([1]; above 200 mg): Accumulation
- exposure with increase in dose [1]: Increased exposure with increase in dose
- AUC relative to Compound A ([1]; repeated dosing, 2/3 subjects at 400 and 800 mg): greater than Compound A

Compound: C=C(C)c1cnn2c(N[C@@H]3CCc4[nH]c5ccccc5c4C3)nc(-c3cncc(F)c3)nc12 [Compound C]
- ratio of Compound C to Compound A (AUC) ([1]; 400 mg and 800 mg dose): 15-20 % of parent
- dose proportionality of PK [1]: greater than dose proportional
- exposure with increase in dose [1]: Increased exposure with increase in dose

Compound: ipilimumab: drug combined with nivolumab; comparator in Keynote-006
- effect on the clearance of ipilimumab ([2]; nivolumab in combination with ipilimumab): no effect

Compound: nivolumab: human monoclonal antibody (IgG4 kappa immunoglobulin) that blocks the interaction between PD-1 and its ligands
- IFN-γ secretion from CMV specific memory T cells [3]: augmented IFN-γ secretion
- subjects alive >5 years and progression-free without subsequent therapy (NSCLC [4]; among 16 NSCLC subjects who discontinued after 2 years of treatment): 12 subjects
- OS rate (NSCLC [4]; at 2 years): 25%
- OS rate (NSCLC [4]; at 3 years): 18%
- 2 year OS rate (NSCLC [5]; non-squamous NSCLC): 29%
- 2 year OS rate (NSCLC [5]; squamous NSCLC): 23%
- 3 year OS rates (NSCLC [5]; squamous and non-squamous NSCLC): 16%-18%
- systemic accumulation ([2]; 3 mg/kg Q2W): approximately 3 fold
- time to steady-state concentrations ([2]; 3 mg/kg Q2W): ≤ 12 weeks
- exposure versus dose ([2]; 0.1 to 10 mg/kg every 2 weeks): increased dose proportionally
- geometric mean clearance (CL) ([2]; 0.1 to 10 mg/kg, single or multiple doses): 9.5 mL/h
- geometric mean elimination half-life (t½) ([2]; 0.1 to 10 mg/kg): 26.7 days
- geometric mean volume of distribution at steady state (Vss) ([2]; 0.1 to 10 mg/kg): 8.0 L
- increase of CL of nivolumab ([2]; in combination with ipilimumab): 24%
- OS HR, continued treatment (advanced NSCLC; median follow-up 14.9 months post-randomization): 0.63
- PFS HR, continue versus stop treatment (advanced NSCLC; post-randomization after 1 year of nivolumab): 0.42
- median PFS (post-randomization) (advanced NSCLC; randomized to continue nivolumab): not reached
- median PFS (post-randomization) (advanced NSCLC; randomized to stop treatment): 10.3 months
- proliferation and IFN-γ release in the MLR (PD-1 pathway): reproducible enhancement

Compound: pembrolizumab
- patients with confirmed progression after stopping at 2 years ([6]; 47 patients who completed 2 years): 4%
- OS hazard ratio (HR) compared to docetaxel ([6]; pembrolizumab 2 mg/kg every 3 weeks): 0.72
- OS hazard ratio (HR) compared to docetaxel ([6]; pembrolizumab 10 mg/kg every 3 weeks): 0.60
- estimated risk of progression or death (advanced melanoma): 9%
